The text below walks through data of the OPERA property sets (Mansouri et al. 2018).

Converted amounts (≈) assume the structure as drawn.

The conditions of one data set: 20 °C.
In the case of `ClC(Br)C(Cl)Br` (stereo not given), the solubility turned out to be 2.73 mM (≈ 700 µg/mL).
Still for that read-out and setting: under `BrCC(Br)Br` stands 1.87 mM (≈ 500 µg/mL); under `ClC(Br)CBr` (stereo not given), 2.79 mM (≈ 620 µg/mL).

The data set is the same for the next values; noted with them: 24 °C.
`FC(F)(Cl)CCl` had a solubility of 6.3 mM (≈ 850 µg/mL).

Still in this data set, the particulars now being: 25 °C.
`ClCCBr` had a solubility of 48.1 mM (≈ 6900 µg/mL).
The same measure, in the same setting: under `CCCl` stands 88 mM (≈ 5680 µg/mL).
Same read-out and setting: under `ClC(Cl)C(Cl)(Cl)Cl` stands 2.37 mM (≈ 480 µg/mL); under `ClC(Cl)=C(Cl)Cl`, 1.21 mM (≈ 200 µg/mL); under `FC(F)(F)C(Cl)Br` (stereo not given), 19.8 mM (≈ 3900 µg/mL).
Still for that read-out and setting: under `ClCC(Cl)(Cl)Cl` stands 6.38 mM (≈ 1070 µg/mL); under `CC(F)(Cl)Cl`, 3.59 mM (≈ 420 µg/mL); under `FCCCl`, 296 mM (≈ 24400 µg/mL).
`CC(Cl)(Cl)Cl` registered a solubility of 11.2 mM (≈ 1490 µg/mL).
Still for that read-out and setting: under `BrC(Br)C(Br)Br` stands 1.91 mM (≈ 659 µg/mL).
The same measure, in the same setting: under `CCI` stands 25.1 mM (≈ 3910 µg/mL).
The same measure, in the same setting: with `CCBr` the figure was 82 mM (≈ 8940 µg/mL).
On to `FC(F)(Br)C(F)(F)Br`, for which the solubility stood at 0.0115 mM (≈ 3 µg/mL).
In the case of `ClCC(Cl)Cl`, the solubility turned out to be 33.1 mM (≈ 4420 µg/mL).
On the same count and under the same terms, with `C=C(Cl)Cl` the figure was 23.2 mM (≈ 2250 µg/mL); with `FC(F)(F)C(Cl)Cl`, 13.7 mM (≈ 2100 µg/mL).
